Measured values from ChEMBL document CHEMBL1156829 (Proc Natl Acad Sci U S A, 2008).

Columns and labels:
Plasmodium falciparum [1] = assay: NOVARTIS: Inhibition of Plasmodium falciparum 3D7 (drug-susceptible) proliferation in erythrocyte-based infection assay; type: functional, organism-based; conditions: Plasmodium falciparum, 3D7
Plasmodium falciparum [2] = assay: NOVARTIS: Inhibition of Plasmodium falciparum W2 (drug-resistant) proliferation in erythrocyte-based infection assay; type: functional, organism-based; conditions: Plasmodium falciparum, W2; read-out: EC50
[3] = NOVARTIS: Cytotoxicity against human hepatocellular carcinoma cell line (Huh7); type: toxicity, cell-based, Huh-7; conditions: Huh7 cells (hepatocellular carcinoma cell line)

Row | Structure (SMILES) | EC50 (Plasmodium falciparum [1]) [µM] | EC50 (Plasmodium falciparum [2]) [µM] | CC50 [3] [µM]
1 | CCN(CC)CCNC(=O)C1c2ccccc2C(=O)N(Cc2ccc(F)cc2)C1c1ccc(OC)cc1 (centres undefined) | 0.782 | 2.42 | 46.4
2 | CC(C)Nc1ccc(Nc2ccnc3cc4ccccc4cc23)cc1 | 0.0318 | 0.277 | 5.4
3 | COc1ccc2nc(C)cc(Nc3ccc(Cl)cc3)c2c1 | 1.23 | 2.69 | 18.3
4 | COc1cccc(NC(=O)C2C3C=CC4(O3)C2C(=O)N(Cc2ccc3c(c2)OCO3)C4C(=O)NC2CCCCC2C)c1 (centres undefined) | > 12.5 | > 5.31 | > 100
5 | COCCN(CC(=O)NCc1ccc(OC2CCN(CC(c3ccccc3)c3ccccc3)CC2)cc1)S(=O)(=O)c1ccccc1 | 1 | 0.526 | > 10
6 | c1ccc(-c2nc(-c3ccc4cccnc4c3)n(-n3c(-c4ccc5cccnc5c4)nc(-c4ccccc4)c3-c3ccccc3)c2-c2ccccc2)cc1 | 3.64 | 1.51 | 29.1
7 | O=S(=O)(NC1=CC2C(=Nc3ccc(NS(=O)(=O)c4ccc(Br)cc4)cc3N2c2ccccc2)C=C1)c1ccc(Br)cc1 (centres undefined) | 0.929 | > 1.47 | > 10
8 | CC1(C)N=C(N)N=C(N)N1c1ccc(Br)cc1 | 0.000592 | 0.533 | > 10
9 | Cc1ccc(Nc2nc(NN=Cc3ccc(-c4ccc([N+](=O)[O-])cc4)o3)nc(N3CCOCC3)n2)cc1Cl | > 0.598 | 0.503 | > 10
10 | CCC(C(=O)N(C)CCCNc1ccnc2cc(Cl)ccc12)c1ccccc1 (centres undefined) | 0.311 | 0.31 | 6.17
11 | c1ccc(CCCNc2ccnc3cc4ccccc4cc23)cc1 | 0.199 | 0.209 | 4.14
12 | COc1ccc(CN2C[C@H](Sc3nc4ccccc4[nH]3)C[C@H]2C(=O)NC2CC2)cc1C | 0.545 | 0.83 | 16.5
13 | Cc1cc(N2CCC(N(C)C3CCCC3)CC2)nc2cc(O)ccc12 | 0.312 | 1.29 | 25.5
14 | CCCN1CCC(N2C[C@@H](NCc3ccc4c(c3)c3ccccc3n4CC)C[C@H]2C(=O)NCC)CC1 | > 0.252 | 0.323 | > 6.38
15 | CC(C)(C)C1=CC(=C2C=C(C(C)(C)C)SC(C(C)(C)C)=C2)C=C(C(C)(C)C)S1 | 0.805 | 0.506 | > 10
16 | CON(C)C=C(C(=O)Nc1ccc(C(F)(F)F)cc1)C(=O)Nc1ccc(C(F)(F)F)cc1 | 0.659 | 0.515 | > 10
17 | CN(Cc1ccccc1)c1cc(-c2ccccn2)nc(-c2ccccn2)n1 | 0.531 | 0.514 | > 10
18 | CC(CCCO)Nc1ccnc2cc(Cl)ccc12 (centres undefined) | 0.561 | 0.513 | > 10
19 | CCCCCCCCC(=O)NCCCCNc1ccnc2cc(Cl)ccc12 | 1.15 | 0.286 | 5.6
20 | Cc1ccc2[nH]c3c(NCCc4ccccc4F)ncnc3c2c1 | 0.835 | 0.843 | 16.5
21 | CCN(CC)CCCNC(=S)N(CCN(CC)CC)Cc1cc2ccc(C)c(C)c2[nH]c1=O | 3.28 | > 2.61 | 51.1
22 | CN(Cc1ccccc1)c1nc2c(c(=O)[nH]c(=O)n2C)n1CCCSc1ncccn1 | > 12.5 | 5.19 | > 100
23 | CC(=O)c1c(C)oc2ccc(NS(=O)(=O)c3cccc(C(=O)O)c3)cc12 | > 1.25 | > 0.515 | > 10

Row | Structure (SMILES) | EC50 (Plasmodium falciparum [1]) [µM] | EC50 (Plasmodium falciparum [2]) [µM] | CC50 [3] [µM]
24 | Cc1nc(CC(=O)N2CCCC(CNC(=O)C3(c4ccc(Cl)cc4)CC3)C2)cs1 (centres undefined) | > 12.5 | 5.02 | > 100
25 | COc1cccc(-n2sc3c(c2=S)-c2cc(OC)ccc2NC3(C)C)c1 | > 0.991 | 1.48 | > 10
26 | Cc1ccc(NC(=O)CCCCC(=O)Nc2ccc(C)c(Br)c2)cc1Br | > 1.16 | > 1.45 | > 10
27 | COc1cc(/C=C(\C#N)c2nc3ccccc3[nH]2)ccc1OCc1ccc(C)cc1 | 1.05 | 1.47 | > 10
28 | Oc1ccccc1Nc1nc(NC2CCCC2)c2ccccc2n1 | 0.53 | 0.877 | 16.7
29 | COc1cccc(N2CCN(CCNCCOc3ccccc3)[C@@H](Cc3ccccc3)C2)c1 | 0.703 | 0.383 | > 7.31
30 | Clc1cccc(CCNC2CCN(CCc3ccccc3)CC2)c1 | 0.17 | 0.651 | 12.4
31 | CC(C)CNC(=O)c1cnc(NCCCN2CCCCC2C)nc1NCC(C)C (centres undefined) | 0.344 | 1.46 | > 10
32 | CCc1ccc2[nH]c(=O)c(CN(CCN(C)C)C(=S)NCCCN(C)C)cc2c1 | 1.76 | > 1.46 | > 10
33 | COc1cccc(C=NNC(=O)c2ccccc2O)c1O | 5.38 | 0.969 | 6.64
34 | Oc1ccc(-c2ccnc3cc(Cl)ccc23)cc1CNCCN1CCOCC1 | 0.984 | 0.622 | > 11.9
35 | COc1ccc(C2(C(=O)NCc3ccccc3Cl)CCCC2)cc1OC | 12 | 5.22 | > 100
36 | COc1ccc(C(=O)N(CCCC(C)Nc2cc(OC)cc3cccnc23)Cc2ccccc2OC)cc1 (centres undefined) | 0.713 | 0.27 | 5.18
37 | CC(C)(C)c1ncccc1OC(=O)C12CC3CC(CC(C3)C1)C2 | 0.349 | > 1.47 | > 10
38 | Clc1ccc(-c2nc3cc(Cl)cnc3[nH]2)cc1 | 0.565 | > 1.25 | > 8.52
39 | CCc1ccc(C(C)=NNc2nc(O)cc(-c3ccccc3)n2)cc1 | 1.78 | > 1.46 | > 10
40 | CN(C)c1ccc(N=C2NC(=O)/C(=C/c3ccc(Cl)cc3)S2)cc1 | 0.819 | 1.46 | > 10
41 | N#CCCN(CC1CCCO1)C(=O)Nc1ccc(Cl)c(C(F)(F)F)c1 (centres undefined) | > 1.02 | > 0.523 | > 10
42 | Cc1ccc(C)c(CN2C(=O)c3ccccc3S(=O)(=O)c3ccc(C(=O)NCCCN4CCCC(C)C4)cc32)c1 (centres undefined) | 1.07 | 1.75 | 12
43 | Cc1ccc(Cl)cc1N1C(=O)[C@@H]2[C@H](C1=O)C1c3ccccc3C=CN1[C@@H]2C(=O)c1cccs1 (some centres undefined) | 1.06 | 0.529 | > 10
44 | COC(=O)c1c(-c2c(F)cccc2Cl)noc1C=CNc1ccc(OC)cc1 | 10.2 | 5.29 | > 100
45 | COc1cc(NC(C)CCCN(Cc2ccccc2OC)C(=O)C(C)C)c2ncccc2c1 (centres undefined) | 0.684 | 0.406 | > 7.7
46 | COc1ccc(Nc2c3c(nc4ccc(NC(=O)c5cc(=O)c6ccccc6o5)cc24)CCCC3)cc1OC | 0.303 | 0.558 | 11.1

Row | Structure (SMILES) | EC50 (Plasmodium falciparum [1]) [µM] | EC50 (Plasmodium falciparum [2]) [µM] | CC50 [3] [µM]
47 | CC(=O)Nc1ccc2c(c1)C(=O)N(C(CC(C)C)C(=O)NCC(=O)O)[C@@H](CCC(=O)OCc1ccccc1)C(=O)N2 (some centres undefined) | 0.0482 | > 0.503 | > 10
48 | O=C(COC(c1ccccc1)c1c(Cl)cncc1Cl)N1CCNCC1 (centres undefined) | 0.592 | 2.57 | 48.2
49 | N=c1c2c(n(Cc3ccc(Cl)cc3)c3c1CCC3)CCCC2 | 0.222 | 0.533 | > 10
50 | CCN(CC)CCCNC(=S)N(Cc1ccc(F)cc1)Cc1cc2cc(C)cc(C)c2[nH]c1=O | 2.76 | 1.2 | 22.5
51 | N=c1c2c(n(Cc3ccc(Cl)c(Cl)c3)c3c1CCC3)CCCC2 | 0.503 | 0.506 | > 10
52 | N#Cc1cc(-c2cccc(C(F)(F)F)c2)cn(Cc2c(Cl)cccc2Cl)c1=O | > 7.43 | 5.08 | > 100
53 | CCCN(CC(=O)Nc1cc(C(C)(C)C)nn1-c1cccc(C)c1C)C(=O)C1CCCCC1 | 1.18 | > 1.39 | 9.45
54 | Cc1oc2c(c1C(=O)NC1CCS(=O)(=O)C1)C(=O)c1ccccc1C2=O (centres undefined) | 0.437 | 0.127 | 2.4
55 | CCOC(=O)c1ccc(NC(=O)c2cc3ccccn3n2)cc1 | > 1.25 | > 0.5 | > 10
56 | Nc1cc2c(cc1Br)CCCC2 | > 1.03 | > 1.47 | > 10
57 | C=CCNC(=O)c1ccc2c(c1)N=C(c1ccc(F)cc1)N(CCCC)C2 | 0.191 | 2.45 | 16.9
58 | C=CCNc1ncnc2c1c(-c1ccccc1)cn2-c1ccccc1 | 4.52 | 5.22 | > 100
59 | CCOC(=O)CCS(=O)(=O)c1ccc(Br)cc1 | 0.237 | > 1.46 | > 10
60 | COc1cc(NC(C)CCCN(Cc2ccc(N(C)C)cc2)C(=O)c2ccc(F)cc2)c2ncccc2c1 (centres undefined) | > 0.63 | 0.501 | > 10
61 | CN(C)CCCNCc1cc(-c2cccnc2)ccc1O | 0.241 | 0.514 | > 10
62 | OC(CN1CCN(C2c3ccccc3-c3ccccc32)CC1)Cn1c2ccc(Br)cc2c2cc(Br)ccc21 (centres undefined) | > 11.3 | 5.08 | > 100
63 | CCN1/C(=C/c2sc3ccc(OC)cc3[n+]2CC)C=Cc2cc(C)ccc21 | 0.431 | 0.508 | > 10
64 | c1ccc(N=c2sc(-c3ccccc3)cn2CCCCCCn2cc(-c3ccccc3)sc2=Nc2ccccc2)cc1 | 0.739 | 0.525 | > 10
65 | Oc1ncnc2c1C(c1ccccc1)c1c(O)ncnc1O2 | > 0.882 | > 0.462 | > 8.83
66 | O=C(NCc1ccccc1)c1cccc2c(Br)cccc12 | > 1.1 | 1.47 | > 10
67 | O=C(NCCc1ccc(-c2ccccc2)cc1)c1ccc(NS(=O)(=O)C(F)(F)F)cc1 | > 1.25 | > 0.439 | > 8.73
68 | Cc1ccc(-c2cn3ccccc3[n+]2CC(=O)c2ccc(Cl)cc2)cc1[N+](=O)[O-] | 0.369 | 0.506 | > 10
